Laboratory results as given in patent publication US5213797A, “A80407 antibiotics” (Eli Lilly and Company, priority 1990, dated 1993).

System: Kibdelosporangium philippinensis (cultures A80407 and A80407.4)
Experiment: Resistance to antibiotics of the producing cultures, antibiotic sensitivity discs on seeded ISP No. 2 agar
Conditions: both cultures

With `CC(=O)OCC1=C(C(=O)O)N2C(=O)[C@@H](NC(=O)Cc3cccs3)[C@H]2SC1` [cephalothin] the Resistance to antibiotics (30 μg) was “resistant”.
`O=C(N[C@H](CO)[C@H](O)c1ccc([N+](=O)[O-])cc1)C(Cl)Cl` [chloramphenicol] was tested, and the Resistance to antibiotics (30 μg) was “sensitive”.
`CC[C@H]1OC(=O)[C@H](C)[C@@H](O[C@H]2C[C@@](C)(OC)[C@@H](O)[C@H](C)O2)[C@H](C)[C@@H](O[C@@H]2O[C@H](C)C[C@H](N(C)C)[C@H]2O)[C@](C)(O)C[C@@H](C)C(=O)[C@H](C)[C@@H](O)[C@]1(C)O` [erythromycin] was tested, and the Resistance to antibiotics (15 μg) was “sensitive”.
`CCC[C@@H]1C[C@@H](C(=O)N[C@@H]([C@H]2O[C@H](SC)[C@H](O)[C@@H](O)[C@H]2O)[C@@H](C)O)N(C)C1` [lincomycin] was tested, and the Resistance to antibiotics (2 μg) was “resistant”.
With `C1N2CN3CN1CN(C2)C3` [mandelamine] the Resistance to antibiotics (3 μg) was “sensitive”.
With `CCn1cc(C(=O)O)c(=O)c2ccc(C)nc21` [nalidixic acid] the Resistance to antibiotics (30 μg) was “resistant”.
In the case of `NC[C@@H]1O[C@H](O[C@H]2[C@@H](O)[C@H](O[C@@H]3[C@@H](O)[C@H](N)C[C@H](N)[C@H]3O[C@H]3O[C@H](CN)[C@@H](O)[C@H](O)[C@H]3N)O[C@@H]2CO)[C@H](N)[C@@H](O)[C@@H]1O` [neomycin], the Resistance to antibiotics (30 μg) is reported as “sensitive”.
In the case of `CO[C@@H]1[C@@H](OC(N)=O)[C@@H](O)[C@H](Oc2ccc3c(O)c(NC(=O)c4ccc(O)c(CC=C(C)C)c4)c(=O)oc3c2C)OC1(C)C` [novobiocin], the Resistance to antibiotics (30 μg) is reported as “sensitive”.
With `CC1(C)S[C@@H]2[C@H](NC(=O)Cc3ccccc3)C(=O)N2[C@H]1C(=O)O` [penicillin G] the Resistance to antibiotics (10 units) was “resistant”.
For `CO[C@H]1/C=C/O[C@@]2(C)Oc3c(C)c(O)c4c(O)c(c(/C=N/N5CCN(C)CC5)c(O)c4c3C2=O)NC(=O)/C(C)=C\C=C\[C@H](C)[C@H](O)[C@@H](C)[C@@H](O)[C@@H](C)[C@H](OC(C)=O)[C@@H]1C` [rifampin], the Resistance to antibiotics (5 μg) was “sensitive”.
In the case of `Nc1ccc(S(=O)(=O)Nc2ncccn2)cc1` [sulfadiazine], the Resistance to antibiotics (300 units) is reported as “resistant”.
In the case of `CN(C)C1C(=O)C(C(N)=O)=C(O)C2(O)C(=O)C3=C(O)c4c(O)cccc4C(C)(O)C3CC12` (stereo not drawn) [tetracycline], the Resistance to antibiotics (10 μg) is reported as “sensitive”.
With `NC[C@H]1O[C@H](O[C@H]2[C@H](O)[C@@H](O[C@H]3O[C@H](CO)[C@@H](O)[C@H](N)[C@H]3O)[C@H](N)C[C@@H]2N)[C@H](N)C[C@@H]1O` [tobramycin] the Resistance to antibiotics (10 μg) was “resistant”.
`COc1cc(Cc2cnc(N)nc2N)cc(OC)c1OC` [trimethoprim] was tested, and the Resistance to antibiotics (5 μg) was “resistant”.
In the case of `CN[C@H](CC(C)C)C(=O)N[C@H]1C(=O)N[C@@H](CC(N)=O)C(=O)N[C@H]2C(=O)N[C@H]3C(=O)N[C@H](C(=O)N[C@H](C(=O)O)c4cc(O)cc(O)c4-c4cc3ccc4O)[C@H](O)c3ccc(c(Cl)c3)Oc3cc2cc(c3O[C@@H]2O[C@H](CO)[C@@H](O)[C@H](O)[C@H]2O[C@H]2C[C@](C)(N)[C@H](O)[C@H](C)O2)Oc2ccc(cc2Cl)[C@H]1O` [vancomycin], the Resistance to antibiotics (30 μg) is reported as “resistant”.
gentamycin was tested, and the Resistance to antibiotics (10 μg) was “sensitive”.
oleandomycin was tested, and the Resistance to antibiotics (15 μg) was “resistant”.
In the case of polymixin B, the Resistance to antibiotics (300 units) is reported as “resistant”.
